Assay results as given in patent publication US20130252930A1 (BIOMARIN PHARMACEUTICAL INC., priority 2010, published 2013).
Read-outs that look alike come from different tables or passages of the source.

What was measured:
[1] = system: rat Cyp11B enzyme (rat adrenal mitochondria); assay: CYP11B enzymatic assay (% inhibition at 100 nM) (Biological Example 9); format: biochemical; details: for CYP11B enzymatic assay % inhibition at 100 nM (Biological Example No. 9) / Biological Example No. 9: CYP11B enzymatic assay % inhibition at 100 nM: compound at 100 nM
Method: Adrenals excised from Sprague Dawley rats were homogenized, and mitochondria fraction were prepared by a series of centrifugation as described in Shuji Ohno, et al. J. of Steroid Biochemistry & Molecular Biology 2002, 80, 355-363. Prepared mitochondria protein was washed and resuspended in Buffer B (0.21 M mannitol, 70 mM sucrose, 5 mM MgCl2, 0.5 mM CaCl2, 20 mM Tris-HCl (pH 7.4) and 1 mM DTT, […]). The protein concentration was determined by BCA assay and stored as 10 μL aliquots at −80° C.
The rat Cyp11B enzyme assay was performed in 96-well plates. Typical assays were carried out in total 50 μL volume that included test compounds at 100 nM concentration, 1× Buffer B, 0.5 mM NADPH, 0.1 μM 11-deoxycortisol, and 2 μL of prepared rat adrenal mitochondria (added last). Reaction without test compound served as positive control and reaction without NADPH served as negative control. Reactions were allowed to incubate at 37° C. for 60 min with gentle shaking. The reaction was stopped by directly applying the enzymatic reaction mixture (1:5 diluted in ELISA assay buffer) to ELISA plate for evaluation of cortisol concentration according to manufacturer's protocol (Assay Design).
The mean absorbance value for each sample was used to determine the corresponding concentration from the standard curve. Amount of cortisol in the negative control (reaction that dis not include NADPH) was subtracted from total cortisol. Percent inhibition (inhibition %) of the compound was calculated using normalized cortisol concentration based on following formula: 100−([Cortisol] of compound/[Cortisol] of positive control *100).

[2] = target: T1, CYP17 (human testicular microsome) (Homo sapiens, UniProt P05093); assay: CYP17 enzymatic assay (% inhibition at 10 nM), version 1 (Biological Example 5); format: biochemical
T1 construct: using microsomal fraction from human testis (Celsis Cat #S00110) as the enzyme source; tissue Celsis S00110; host or cells: human testis microsomal fraction
T1 sequence (P05093 1-508): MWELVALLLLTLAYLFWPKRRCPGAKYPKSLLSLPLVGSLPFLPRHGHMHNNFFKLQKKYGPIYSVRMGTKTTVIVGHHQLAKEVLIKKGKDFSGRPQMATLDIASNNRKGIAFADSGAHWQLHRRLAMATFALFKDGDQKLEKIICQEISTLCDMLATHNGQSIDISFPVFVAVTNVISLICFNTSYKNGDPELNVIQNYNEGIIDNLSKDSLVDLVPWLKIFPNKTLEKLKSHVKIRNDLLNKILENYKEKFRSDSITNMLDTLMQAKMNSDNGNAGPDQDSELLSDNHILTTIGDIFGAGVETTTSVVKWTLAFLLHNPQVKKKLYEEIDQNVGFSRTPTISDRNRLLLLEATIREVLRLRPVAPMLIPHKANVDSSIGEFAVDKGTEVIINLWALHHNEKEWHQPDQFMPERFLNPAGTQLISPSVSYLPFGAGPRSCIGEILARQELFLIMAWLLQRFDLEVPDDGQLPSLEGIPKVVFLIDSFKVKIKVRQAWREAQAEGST

[3] = Human liver microsome stability assay (Biological Example 8b); details: liver microsomes, pH 7.4
[4] = target: T1, CYP17 (human testicular microsome); assay: CYP17 enzymatic assay (% inhibition at 1 nM) (Biological Example 12); format: biochemical; details: compound at 1 nM
[5] = target: T1, CYP17 (human testicular microsome); assay: CYP17 enzymatic assay (IC50) (Biological Example 4); format: biochemical; details: human testicular microsome
[6] = compound at 10 nM, read-out: CYP17 enzymatic assay % inhibition at 10 nM (Biological Example No. 5)
[7] = read-out: CYP17 enzymatic assay % inhibition at 1 nM (Biological Example No. 12)
[8] = read-out: CYP17 enzymatic assay IC50 (Biological Example No. 4)
[9] = read-out: Biological Example No. 12: CYP17 enzymatic assay % inhibition at 1 nM

inhibition at 0.001 µM [4, 7] [%] | SMILES | CYP11B enzymatic assay % inhibition at 100 nM (Biological Example No. 9) [1] | Biological Example No. 9: CYP11B enzymatic assay % inhibition at 100 nM [1] | further results
 | CC(=O)O[C@H]1CC[C@@]2(C)C(=CC[C@H]3C4=CC=C(c5cccnc5)[C@@]4(C)CC[C@@H]32)C1 [Compound 78, (3S,10R,13S)-10,13-dimethyl-17-(pyridin-3-yl)-2,3,4,7,8,9,10,11,12,13-decahydro-1H-cyclopenta[a]phenanthren-3-yl acetate] |  |  | Biological Example No. 9: CYP11B percent inhibition at 100 nM ([1]; 100 nM compound, cortisol by ELISA): U (U means the compound had a percent inhibition of greater than or equal to 32%); inhibition at 0.01 µM ([2]; 10 nM compound, DHEA by ELISA, read-out: Biological Example No. 5: CYP17 percent inhibition at 10 nM (version 1)): 1 to 50%
 | COc1cncc(C2=CCC3C4CC=C5N(C)C(=O)CCC[C@]5(C)C4CC[C@]23C)c1 (stereo partly drawn) [Compound 181, (5aR,7aS)-8-(5-methoxypyridin-3-yl)-1,5a,7a-trimethyl-3,4,5,5a,5b,6,7,7a,10,10a,10b,11-dodecahydrocyclopenta[5,6]naphtho[2,1-b]azepin-2(1H)-one] | U (U means the compound had a percent inhibition of greater than or equal to 32%) |  | inhibition at 0.01 µM [2, 6]: > 80%; half-life at 1 μM [3]: 1 to 50 min
 | Cc1cncc(C2=CCC3C4CC=C5N(C)C(=O)CCC[C@]5(C)C4CC[C@]23C)c1 (stereo partly drawn) [Compound 182, (5aR,7aS)-1,5a,7a-trimethyl-8-(5-methylpyridin-3-yl)-3,4,5,5a,5b,6,7,7a,10,10a,10b,11-dodecahydrocyclopenta[5,6]naphtho[2,1-b]azepin-2(1H)-one] | U (U means the compound had a percent inhibition of greater than or equal to 32%) |  | inhibition at 0.01 µM [2, 6]: 50 to 80%
 | CN1C(=O)CC[C@@]2(C)C1=CC[C@@H]1[C@@H]2CC[C@]2(C)C(n3ccnc3)=CC[C@@H]12 [Compound 183, (4aR,6aS)-7-(1H-imidazol-1-yl)-1,4a,6a-trimethyl-4,4a,4b,5,6,6a,9,9a,9b,10-decahydro-1H-indeno[5,4-f]quinolin-2(3H)-one] | U (U means the compound had a percent inhibition of greater than or equal to 32%) |  | inhibition at 0.01 µM [2, 6]: 50 to 80%
> 50 | CN1C(=O)C[C@@]2(C)C1=CCC1C2CC[C@]2(C)C(c3cccnc3)=CCC12 (stereo partly drawn) [Compound 185, (3aR,5aS)-1,3a,5a-trimethyl-6-(pyridin-3-yl)-3,3a,3b,4,5,5a,8,8a,8b,9-decahydroindeno[5,4-e]indol-2(1H)-one] | U (U means the compound had a percent inhibition of greater than or equal to 32%) |  | IC50 [5, 8]: < 11 nM
10 to 50 | CN1C(=O)C[C@@]2(C)C1=CCC1C2CC[C@]2(C)C(n3ccnc3)=CCC12 (stereo partly drawn) [Compound 186, (3aR,5aS)-6-(1H-imidazol-1-yl)-1,3a,5a-trimethyl-3,3a,3b,4,5,5a,8,8a,8b,9-decahydroindeno[5,4-e]indol-2(1H)-one] | U (U means the compound had a percent inhibition of greater than or equal to 32%) |  | 
> 50 | COc1cncc(C2=CCC3C4CC=C5N(C)C(=O)C[C@]5(C)C4CC[C@]23C)c1 (stereo partly drawn) [Compound 187, (3aR,5aS)-6-(5-methoxypyridin-3-yl)-1,3a,5a-trimethyl-3,3a,3b,4,5,5a,8,8a,8b,9-decahydroindeno[5,4-e]indol-2(1H)-one] | T (T means the compound had a percent inhibition of less than 32% when tested at 100 nM) |  | half-life at 1 μM [3]: 1 to 50 min; IC50 [5, 8]: < 11 nM
10 to 50 | Cc1cncc(C2=CCC3C4CC=C5N(C)C(=O)C[C@]5(C)C4CC[C@]23C)c1 (stereo partly drawn) [Compound 188, (3aR,5aS)-1,3a,5a-trimethyl-6-(5-methylpyridin-3-yl)-3,3a,3b,4,5,5a,8,8a,8b,9-decahydroindeno[5,4-e]indol-2(1H)-one] | T (T means the compound had a percent inhibition of less than 32% when tested at 100 nM) |  | 
10 to 50 | CCOc1cncc(C2=CCC3C4CC=C5N(C)C(=O)C[C@]5(C)C4CC[C@]23C)c1 (stereo partly drawn) [Compound 189, (3aR,5aS)-6-(5-ethoxypyridin-3-yl)-1,3a,5a-trimethyl-3,3a,3b,4,5,5a,8,8a,8b,9-decahydroindeno[5,4-e]indol-2(1H)-one] | U (U means the compound had a percent inhibition of greater than or equal to 32%) |  | 
 | C[C@]12CC[C@H](O)CC1=CC[C@@H]1[C@@H]2CC[C@]2(C)C(n3cncc3C#N)=CC[C@@H]12 [Compound 426, 1-((3S,10R,13S)-3-hydroxy-10,13-dimethyl-2,3,4,7,8,9,10,11,12,13,14,15-dodecahydro-1H-cyclopenta[a]phenanthren-17-yl)-1H-imidazole-5-carbonitrile] |  | U (U means the compound had a percent inhibition of greater than or equal to 32%) | inhibition at 0.001 µM [4, 9]: 10 to 50%
 | CN1C(=O)CC[C@@]2(C)C1=CCC1C2CC[C@]2(C)C(c3cncc(F)c3)=CCC12 (stereo partly drawn) [Compound 428, (4aR,6aS)-7-(5-fluoropyridin-3-yl)-1,4a,6a-trimethyl-4,4a,4b,5,6,6a,9,9a,9b,10-decahydro-1H-indeno[5,4-f]quinolin-2(3H)-one] |  | U (U means the compound had a percent inhibition of greater than or equal to 32%) | inhibition at 0.001 µM [4, 9]: 10 to 50%
 | CN1C(=O)CC[C@@]2(C)C1=CC[C@@H]1[C@@H]2CC[C@]2(C)C(n3cncc3C#N)=CC[C@@H]12 [Compound 433, 1-((4aR,6aS)-1,4a,6a-trimethyl-2-oxo-2,3,4,4a,4b,5,6,6a,9,9a,9b,10-dodecahydro-1H-indeno[5,4-f]quinolin-7-yl)-1H-imidazole-5-carbonitrile] |  | T (T means the compound had a percent inhibition of less than 32% when tested at 100 nM) | inhibition at 0.001 µM [4, 9]: < 10%
 | C[C@]12CCCN(S(C)(=O)=O)CC1CC[C@@H]1[C@@H]2CC[C@]2(C)C(n3ccnc3)=CC[C@@H]12 (stereo partly drawn) [Compound 437, (5aR,7aS)-8-(1H-imidazol-1-yl)-5a,7a-dimethyl-2-(methylsulfonyl)-1,2,3,4,5,5a,5b,6,7,7a,10,10a,10b,11,12,12a-hexadecahydrocyclopenta[5,6]naphtho[2,1-c]azepine] |  | U (U means the compound had a percent inhibition of greater than or equal to 32%) | IC50 ([5]; read-out: Biological Example No. 4: CYP17 enzymatic assay IC50): > 25 nM
10 to 50 | CC(=O)N1CCC[C@@]2(C)[C@@H](CC[C@@H]3[C@@H]2CC[C@]2(C)C(n4ccnc4)=CC[C@@H]32)C1 [Compound 443, 1-((5aR,5bS,7aS,10aS,10bR,12aR)-8-(1H-imidazol-1-yl)-5a,7a-dimethyl-3,4,5,5a,5b,6,7,7a,10,10a,10b,11,12,12a-tetradecahydrocyclopenta[5,6]naphtho[2,1-c]azepin-2(1H)-yl)ethanone] | U (U means the compound had a percent inhibition of greater than or equal to 32%) |  | 
 | COC(=O)c1cncn1C1=CCC2C3CC=C4C[C@@H](O)CC[C@]4(C)C3CC[C@]12C (stereo partly drawn) [Compound 476, methyl 1-((3S,10R,13S)-3-hydroxy-10,13-dimethyl-2,3,4,7,8,9,10,11,12,13,14,15-dodecahydro-1H-cyclopenta[a]phenanthren-17-yl)-1H-imidazole-5-carboxylate] |  | na (“na” means the compound was not active under the conditions tested) | inhibition at 0.001 µM [4, 9]: 10 to 50%
